The text below walks through data of article PMC9141242, “Enhanced Soluble Expression of Linoleic Acid Isomerase by Coordinated Regulation of Promoter and Fusion Tag in Escherichia coli” (Foods, 2022).

The target of the experiment is T1, MBP-PAI (Cutibacterium acnes, UniProt Q6A8X5).
T1 construct: gene PPA1039; PAI (about 50 kDa); synthesized gene in pET-24a(+), E. coli BL21(DE3)
T1 sequence (Q6A8X5 1-424): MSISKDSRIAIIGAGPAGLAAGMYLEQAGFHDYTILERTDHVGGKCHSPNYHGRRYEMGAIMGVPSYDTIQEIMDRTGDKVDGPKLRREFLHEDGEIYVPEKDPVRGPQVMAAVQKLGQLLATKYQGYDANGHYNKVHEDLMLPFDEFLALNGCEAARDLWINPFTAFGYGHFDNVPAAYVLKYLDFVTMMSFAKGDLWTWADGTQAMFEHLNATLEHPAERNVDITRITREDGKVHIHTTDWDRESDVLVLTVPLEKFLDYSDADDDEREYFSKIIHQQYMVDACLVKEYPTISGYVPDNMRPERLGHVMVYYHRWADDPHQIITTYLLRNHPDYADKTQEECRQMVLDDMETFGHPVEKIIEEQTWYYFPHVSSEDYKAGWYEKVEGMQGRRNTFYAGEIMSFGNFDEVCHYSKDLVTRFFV
The experiment is described as follows: spectrophotometry at […] nm, CLA formation, Lineweaver-Burk. It is filed as biochemical. Conditions: optimal conditions (37 °C, pH 7.5, 1 mmol/L Tween-20); LA 71-1428 μM; MBP tag not cleaved; apparent.

What is called Km is the substrate concentration at which the rate is half of its maximum. On to `CCCCC/C=C\C/C=C\CCCCCCCC(=O)O` [linoleic acid], for which the Km was determined as 254 µM.
